# ChEMBL document CHEMBL1201862, “PubChem BioAssay data set” (2004)
# Active and inactive are the calls of the source.
# Experiments:
# [1] = target: Sphingosine 1-phosphate receptor 2 (Homo sapiens, UniProt O95136); assay: Dose Response Cell Based Assay for Agonists of the S1P2 Receptor. [Related pubchem assays: 729, 736, 843 ]; type: functional
# [2] = M. tuberculosis growth inhibition, HTS (AID 449762); type: functional
# [3] = microbe, parasite or virus in culture; type: functional; settings: Mycobacterium tuberculosis
# Caspase-3 = target: T1, Caspase-3 (Homo sapiens, UniProt P42574); type: functional;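 further: Dose-response selectivity test against caspase-3 for candidate inhibitors of sentrin-specific proteases (SENPs)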
# T1 sequence (P42574 whole entry): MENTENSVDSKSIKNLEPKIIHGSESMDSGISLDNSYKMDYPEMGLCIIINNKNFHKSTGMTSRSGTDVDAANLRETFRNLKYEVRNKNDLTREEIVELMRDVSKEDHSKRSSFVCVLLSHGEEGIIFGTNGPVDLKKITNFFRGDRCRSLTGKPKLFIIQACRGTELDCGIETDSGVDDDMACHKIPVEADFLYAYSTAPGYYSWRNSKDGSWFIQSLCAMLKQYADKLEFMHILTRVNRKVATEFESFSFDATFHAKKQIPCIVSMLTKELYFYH
# [4] = target: T2, Sentrin-specific protease 7 (Homo sapiens, UniProt Q9BQF6); type: functional;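 further: Luminescence-based dose-response confirmation of ultra-high-throughput screening hits, measuring inhibition of SENP7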
# T2 sequence (Q9BQF6 whole entry): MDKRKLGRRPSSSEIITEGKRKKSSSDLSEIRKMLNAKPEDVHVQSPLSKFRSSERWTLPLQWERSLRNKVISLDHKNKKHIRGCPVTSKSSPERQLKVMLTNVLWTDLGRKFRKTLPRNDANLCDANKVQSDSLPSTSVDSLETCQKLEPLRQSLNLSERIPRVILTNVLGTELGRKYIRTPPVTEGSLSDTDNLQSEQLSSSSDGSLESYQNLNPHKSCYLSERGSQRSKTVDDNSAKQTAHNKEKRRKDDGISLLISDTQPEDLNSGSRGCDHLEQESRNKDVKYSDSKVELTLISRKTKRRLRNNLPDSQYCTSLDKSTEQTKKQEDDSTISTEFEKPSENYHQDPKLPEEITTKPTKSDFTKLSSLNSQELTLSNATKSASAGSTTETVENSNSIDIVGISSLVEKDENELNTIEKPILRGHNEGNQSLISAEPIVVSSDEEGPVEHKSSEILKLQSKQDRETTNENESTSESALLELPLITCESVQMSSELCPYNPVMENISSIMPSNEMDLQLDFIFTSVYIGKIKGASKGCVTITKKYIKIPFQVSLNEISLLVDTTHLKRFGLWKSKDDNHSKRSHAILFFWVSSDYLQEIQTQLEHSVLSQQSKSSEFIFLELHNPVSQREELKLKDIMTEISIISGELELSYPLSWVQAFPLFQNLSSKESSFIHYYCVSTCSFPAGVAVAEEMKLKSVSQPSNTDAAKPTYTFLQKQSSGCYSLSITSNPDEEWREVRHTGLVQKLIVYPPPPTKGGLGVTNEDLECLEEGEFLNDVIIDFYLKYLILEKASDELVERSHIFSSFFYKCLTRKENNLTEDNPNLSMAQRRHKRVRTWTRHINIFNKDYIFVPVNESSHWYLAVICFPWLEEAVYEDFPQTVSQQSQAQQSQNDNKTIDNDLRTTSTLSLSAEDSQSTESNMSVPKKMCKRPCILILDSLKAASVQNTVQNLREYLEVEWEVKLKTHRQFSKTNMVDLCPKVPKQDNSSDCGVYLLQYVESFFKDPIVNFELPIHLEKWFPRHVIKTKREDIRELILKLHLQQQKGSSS
# [5] = target: T3, Sentrin-specific protease 6 (Homo sapiens, UniProt Q9GZR1); type: functional;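 further: Luminescence-based dose-response confirmatory assay of SENP6 inhibition, following up an ultra-high-throughput screen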
# T3 sequence (Q9GZR1 whole entry): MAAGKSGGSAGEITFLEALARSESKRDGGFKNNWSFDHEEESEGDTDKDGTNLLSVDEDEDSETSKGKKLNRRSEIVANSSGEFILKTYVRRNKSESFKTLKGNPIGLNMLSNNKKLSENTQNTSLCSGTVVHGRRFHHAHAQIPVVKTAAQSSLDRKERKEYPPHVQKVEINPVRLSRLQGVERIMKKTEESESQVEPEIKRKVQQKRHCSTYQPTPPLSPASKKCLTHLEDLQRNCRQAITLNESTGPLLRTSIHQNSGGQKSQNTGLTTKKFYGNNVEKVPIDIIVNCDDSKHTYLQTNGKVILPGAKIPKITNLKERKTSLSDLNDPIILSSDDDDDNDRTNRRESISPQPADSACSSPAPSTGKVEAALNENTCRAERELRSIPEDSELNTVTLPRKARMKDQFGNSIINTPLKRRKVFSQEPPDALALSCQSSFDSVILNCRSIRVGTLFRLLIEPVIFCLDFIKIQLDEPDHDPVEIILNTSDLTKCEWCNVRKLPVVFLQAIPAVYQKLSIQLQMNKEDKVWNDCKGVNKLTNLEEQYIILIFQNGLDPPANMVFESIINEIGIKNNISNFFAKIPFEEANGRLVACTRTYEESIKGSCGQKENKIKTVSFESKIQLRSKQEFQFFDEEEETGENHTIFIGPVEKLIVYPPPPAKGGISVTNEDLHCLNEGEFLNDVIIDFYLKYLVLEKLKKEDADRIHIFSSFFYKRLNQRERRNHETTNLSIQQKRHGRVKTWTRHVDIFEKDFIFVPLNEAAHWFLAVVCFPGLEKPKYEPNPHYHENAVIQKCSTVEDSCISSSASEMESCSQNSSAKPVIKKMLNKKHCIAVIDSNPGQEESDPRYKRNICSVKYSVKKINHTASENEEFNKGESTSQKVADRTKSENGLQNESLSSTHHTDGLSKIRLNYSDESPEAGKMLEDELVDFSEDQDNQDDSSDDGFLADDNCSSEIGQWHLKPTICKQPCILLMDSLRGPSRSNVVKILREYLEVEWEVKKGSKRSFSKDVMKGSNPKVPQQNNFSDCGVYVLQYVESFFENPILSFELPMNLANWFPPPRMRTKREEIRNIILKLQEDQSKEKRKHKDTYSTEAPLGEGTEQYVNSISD
# [6] = target: T4, Sentrin-specific protease 8 (Homo sapiens, UniProt Q96LD8); type: functional;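 further: luminescence read-out of SENP8 inhibition, dose-response confirmation following an ultra-high-throughput screen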
# T4 sequence (Q96LD8 whole entry): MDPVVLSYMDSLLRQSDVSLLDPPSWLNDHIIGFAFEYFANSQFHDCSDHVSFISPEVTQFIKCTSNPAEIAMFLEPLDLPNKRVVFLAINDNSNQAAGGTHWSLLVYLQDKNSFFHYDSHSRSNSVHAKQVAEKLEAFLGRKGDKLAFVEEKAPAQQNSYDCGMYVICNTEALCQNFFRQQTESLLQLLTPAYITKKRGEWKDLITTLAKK
# [7] = Luminescence-based cell-based high throughput dose response assay to identify activators of the DAF-12 from the parasite S. stercoralis (ssDAF-12).; type: functional
# [8] = target: T5, Oxysterols receptor LXR-beta (Homo sapiens, UniProt P55055); assay: LXR agonists, Gal4 luciferase reporter, dose response, counter-screen for ssDAF-12 agonist project, cell-based, luminescence, HEK293, S. stercoralis campaign (AID 720737); type: functional; settings: read-out: IC50 (the source's name)
# T5 sequence (P55055 whole entry): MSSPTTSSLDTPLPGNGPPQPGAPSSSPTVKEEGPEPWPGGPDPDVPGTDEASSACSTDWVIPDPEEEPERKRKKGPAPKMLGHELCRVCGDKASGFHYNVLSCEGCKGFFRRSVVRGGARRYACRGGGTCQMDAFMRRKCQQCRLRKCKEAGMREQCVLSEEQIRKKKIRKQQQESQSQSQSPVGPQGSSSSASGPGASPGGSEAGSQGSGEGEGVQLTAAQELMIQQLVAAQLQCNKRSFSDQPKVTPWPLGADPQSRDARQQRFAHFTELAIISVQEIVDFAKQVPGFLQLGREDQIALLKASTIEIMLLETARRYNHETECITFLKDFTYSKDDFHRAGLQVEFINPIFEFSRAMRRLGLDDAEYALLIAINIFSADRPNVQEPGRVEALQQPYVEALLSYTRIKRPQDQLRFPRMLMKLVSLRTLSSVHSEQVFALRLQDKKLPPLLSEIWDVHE
# Prothrombin = Prothrombin (Homo sapiens, UniProt P00734); assay: Thrombin 1536 HTS Dose Response Confirmation. [Related pubchem assays: 1046 (Thrombin 1536 HTS; hits were confirmed in this assay)]; type: functional
# Ephrin type-A receptor 4 = Ephrin type-A receptor 4 (Mus musculus, UniProt Q03137); assay: inhibitors of EphA4 binding to KYL peptide, primary screen, biochemical, colorimetric, mouse EphA4 (AID 689); type: functional
# Chain of Ephrin type-A receptor 4 (Q03137 whole entry): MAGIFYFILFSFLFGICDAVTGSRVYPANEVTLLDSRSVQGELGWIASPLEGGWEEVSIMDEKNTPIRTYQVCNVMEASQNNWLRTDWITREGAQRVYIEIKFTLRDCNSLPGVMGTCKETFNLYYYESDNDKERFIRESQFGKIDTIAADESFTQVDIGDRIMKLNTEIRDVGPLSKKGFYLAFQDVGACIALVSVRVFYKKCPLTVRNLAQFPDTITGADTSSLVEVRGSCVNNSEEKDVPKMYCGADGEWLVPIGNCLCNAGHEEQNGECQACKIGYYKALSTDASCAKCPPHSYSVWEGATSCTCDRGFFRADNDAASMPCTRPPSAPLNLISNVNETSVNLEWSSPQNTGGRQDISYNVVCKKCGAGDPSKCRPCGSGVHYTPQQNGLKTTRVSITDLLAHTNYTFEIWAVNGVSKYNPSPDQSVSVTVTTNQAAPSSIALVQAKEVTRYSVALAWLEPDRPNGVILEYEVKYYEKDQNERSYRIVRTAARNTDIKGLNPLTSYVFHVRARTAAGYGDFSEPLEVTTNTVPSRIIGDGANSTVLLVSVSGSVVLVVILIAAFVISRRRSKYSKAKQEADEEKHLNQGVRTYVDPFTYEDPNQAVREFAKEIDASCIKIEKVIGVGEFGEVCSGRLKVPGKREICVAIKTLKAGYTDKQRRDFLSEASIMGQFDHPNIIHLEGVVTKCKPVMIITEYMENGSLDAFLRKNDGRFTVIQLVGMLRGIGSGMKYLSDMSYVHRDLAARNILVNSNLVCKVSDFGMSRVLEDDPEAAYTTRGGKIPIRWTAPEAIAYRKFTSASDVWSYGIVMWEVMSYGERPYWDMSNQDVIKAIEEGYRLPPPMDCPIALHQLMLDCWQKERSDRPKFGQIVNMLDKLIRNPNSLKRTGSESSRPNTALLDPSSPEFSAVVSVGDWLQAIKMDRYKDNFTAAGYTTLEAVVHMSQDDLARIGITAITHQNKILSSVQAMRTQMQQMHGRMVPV
# [9] = target: Induced myeloid leukemia cell differentiation protein Mcl-1 (Homo sapiens, UniProt Q07820); type: functional
# Chain of Induced myeloid leukemia cell differentiation protein Mcl-1 (Q07820 whole entry): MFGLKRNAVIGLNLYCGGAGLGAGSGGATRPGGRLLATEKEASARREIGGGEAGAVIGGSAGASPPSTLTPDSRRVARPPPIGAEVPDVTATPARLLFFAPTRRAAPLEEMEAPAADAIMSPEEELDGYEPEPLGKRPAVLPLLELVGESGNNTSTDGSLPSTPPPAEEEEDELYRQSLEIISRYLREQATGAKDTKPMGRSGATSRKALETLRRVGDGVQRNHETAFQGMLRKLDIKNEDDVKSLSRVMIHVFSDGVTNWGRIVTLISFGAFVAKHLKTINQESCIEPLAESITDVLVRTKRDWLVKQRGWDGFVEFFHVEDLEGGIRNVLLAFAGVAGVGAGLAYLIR
# [10] = target: T6, Heat shock factor protein 1 (Mus musculus, UniProt P38532); assay: HSF1 potentiators in luciferase reporter cells, confirmation, cell-based, NIH3T3, luminescence, dose retest (AID 435004); type: functional;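 further: stress induced by proteasome inhibitor MG132 added 30 min after compound; luciferase reporter driven by HSF1 response element in NIH3T3 cells; actives raise luminescence as potentiators of the MG132 stress response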
# T6 sequence (P38532 whole entry): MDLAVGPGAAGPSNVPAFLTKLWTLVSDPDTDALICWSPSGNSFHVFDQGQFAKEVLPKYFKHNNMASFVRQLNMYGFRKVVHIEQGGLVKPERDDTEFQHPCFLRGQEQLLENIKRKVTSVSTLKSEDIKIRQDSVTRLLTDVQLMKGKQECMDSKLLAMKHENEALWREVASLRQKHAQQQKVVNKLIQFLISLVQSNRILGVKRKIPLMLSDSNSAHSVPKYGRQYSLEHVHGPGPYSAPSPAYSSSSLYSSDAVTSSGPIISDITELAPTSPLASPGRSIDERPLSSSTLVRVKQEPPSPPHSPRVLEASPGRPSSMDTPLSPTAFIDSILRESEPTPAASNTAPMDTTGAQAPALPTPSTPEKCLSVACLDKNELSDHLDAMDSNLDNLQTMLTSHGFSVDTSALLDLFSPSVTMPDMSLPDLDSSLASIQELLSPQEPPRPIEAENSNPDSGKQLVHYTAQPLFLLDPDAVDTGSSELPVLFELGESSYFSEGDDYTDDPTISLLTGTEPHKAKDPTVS
# Paired box protein Pax-8 = Paired box protein Pax-8 (Homo sapiens, UniProt Q06710); assay: inhibitors of PAX8-driven TPO luciferase reporter, dose response, RMG-I cells, cherry-pick (AID 687027); type: functional, cell-based;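 further: luciferase reporter driven by Pax8 target thyroperoxidase promoter measured by SteadyGlo luminescence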
# Chain of Paired box protein Pax-8 (Q06710 whole entry): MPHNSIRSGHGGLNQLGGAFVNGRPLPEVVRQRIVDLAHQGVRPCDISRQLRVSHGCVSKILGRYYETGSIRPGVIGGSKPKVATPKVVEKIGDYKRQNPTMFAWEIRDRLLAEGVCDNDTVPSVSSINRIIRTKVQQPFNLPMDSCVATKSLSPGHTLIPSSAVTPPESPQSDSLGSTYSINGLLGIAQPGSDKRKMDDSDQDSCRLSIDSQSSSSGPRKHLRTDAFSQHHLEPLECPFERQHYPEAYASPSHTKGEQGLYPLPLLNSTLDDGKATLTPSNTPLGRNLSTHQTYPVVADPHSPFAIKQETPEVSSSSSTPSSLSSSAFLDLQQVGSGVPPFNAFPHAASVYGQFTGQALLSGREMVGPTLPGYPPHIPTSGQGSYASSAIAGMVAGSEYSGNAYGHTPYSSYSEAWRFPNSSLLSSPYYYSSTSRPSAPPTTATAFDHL
# [11] = P. falciparum 3D7-ScDHODH growth inhibitors, dose response, SYBR Green, dry powder samples (AID 1159570); type: functional, cell-based;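 further: parasite growth measured after 72 hours of compound exposure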
# [12] = HepG2 cell cytotoxicity, dose response, cytotoxicity control, plate reader, dry powder samples (AID 1159569); type: functional, cell-based;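 further: inhibitor potency with signal falling toward the positive control level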
# [13] = P. falciparum Dd2 growth inhibitors, dose response, SYBR Green, cherry-picked samples (AID 1159567); type: functional, cell-based
# [14] = P. falciparum Dd2 growth inhibitors, dose response, SYBR Green, dry powder samples (AID 1159566); type: functional, cell-based;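 further: potency for growth inhibition with lower SYBR green DNA signal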
# [15] = P. falciparum ATP4 D1247Y mutant growth inhibitors, dose response, NITD609-resistant line, SYBR Green, dry powder (AID 1159571); type: functional, cell-based;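 further: parasites synchronized at ring stage by sorbitol before testing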
# [16] = HEp-2 cell cytotoxicity, dose response, cytotoxicity control for RSV inhibitor project, HTS (AID 2410); type: functional; settings: human respiratory syncytial virus
# [17] = THP-1 cell cytotoxicity, dose response, cytotoxicity control for non-replicating M. tuberculosis project (AID 489025); type: functional
# HEK293 = assay: inhibitors of LMP1-driven NF-kB reporter, dose response, cell-based, HEK293, luciferase, cherry-pick (AID 588343); type: functional; settings: Homo sapiens
# [18] = HeLa 2N DNA content increase, dose response, cell-based, IC50 (AID 1117349); type: functional
# [19] = HeLa 4N DNA content increase, dose response, cell-based, IC50 (AID 1117351); type: functional
# [20] = target: Voltage-gated inwardly rectifying potassium channel KCNH2 (Homo sapiens, UniProt Q12809); settings: Potency;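 further: confirmatory quantitative high-throughput screen measuring inhibition of hERG channel activity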
# Chain of Voltage-gated inwardly rectifying potassium channel KCNH2 (Q12809 whole entry): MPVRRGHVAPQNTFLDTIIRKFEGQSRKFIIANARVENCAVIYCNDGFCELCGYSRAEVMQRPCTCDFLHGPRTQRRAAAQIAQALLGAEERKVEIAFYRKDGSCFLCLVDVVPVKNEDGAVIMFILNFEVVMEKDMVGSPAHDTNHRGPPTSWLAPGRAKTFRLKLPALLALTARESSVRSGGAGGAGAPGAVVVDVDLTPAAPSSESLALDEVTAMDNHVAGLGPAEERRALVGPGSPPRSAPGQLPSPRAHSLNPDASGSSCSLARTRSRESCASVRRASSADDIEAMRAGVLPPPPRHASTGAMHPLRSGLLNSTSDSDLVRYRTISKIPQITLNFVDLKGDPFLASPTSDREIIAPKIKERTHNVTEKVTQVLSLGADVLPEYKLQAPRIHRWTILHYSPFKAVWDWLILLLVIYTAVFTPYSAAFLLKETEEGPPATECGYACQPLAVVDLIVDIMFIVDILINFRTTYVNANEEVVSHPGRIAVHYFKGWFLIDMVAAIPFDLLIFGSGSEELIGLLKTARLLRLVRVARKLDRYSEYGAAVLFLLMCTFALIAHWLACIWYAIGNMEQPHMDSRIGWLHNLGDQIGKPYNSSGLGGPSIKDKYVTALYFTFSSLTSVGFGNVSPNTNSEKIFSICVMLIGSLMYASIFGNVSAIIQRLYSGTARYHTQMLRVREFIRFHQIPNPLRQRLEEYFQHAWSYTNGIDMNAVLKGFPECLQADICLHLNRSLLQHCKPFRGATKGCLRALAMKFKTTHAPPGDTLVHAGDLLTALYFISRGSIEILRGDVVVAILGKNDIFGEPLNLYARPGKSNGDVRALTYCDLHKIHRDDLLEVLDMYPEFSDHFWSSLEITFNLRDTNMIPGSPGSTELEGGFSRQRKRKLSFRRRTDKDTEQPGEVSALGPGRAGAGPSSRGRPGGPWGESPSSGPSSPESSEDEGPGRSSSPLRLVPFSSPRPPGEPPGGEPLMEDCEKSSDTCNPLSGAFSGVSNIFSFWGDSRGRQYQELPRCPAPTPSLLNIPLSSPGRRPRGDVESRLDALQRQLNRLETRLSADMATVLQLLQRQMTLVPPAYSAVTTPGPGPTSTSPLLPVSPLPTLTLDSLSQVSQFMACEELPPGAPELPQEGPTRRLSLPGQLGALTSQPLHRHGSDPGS
# Chain of Sphingosine 1-phosphate receptor 2 (O95136 whole entry): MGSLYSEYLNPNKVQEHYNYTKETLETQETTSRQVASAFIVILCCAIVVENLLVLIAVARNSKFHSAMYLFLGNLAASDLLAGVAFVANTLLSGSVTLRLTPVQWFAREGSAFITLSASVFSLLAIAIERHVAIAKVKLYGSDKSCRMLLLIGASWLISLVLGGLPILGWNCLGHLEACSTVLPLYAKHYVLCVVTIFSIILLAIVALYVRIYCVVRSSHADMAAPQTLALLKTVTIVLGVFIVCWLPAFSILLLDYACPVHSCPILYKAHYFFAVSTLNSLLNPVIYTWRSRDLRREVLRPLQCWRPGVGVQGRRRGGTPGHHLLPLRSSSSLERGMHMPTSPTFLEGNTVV
compound,measurement,setting,value
CCOC(=O)c1cc2ccc(OC)c(OC)c2c(=O)s1,EC50,[1],> 50 µM (not active)
COc1ccc(-c2c(-c3cc(OC)cc(OC)c3)n(C)c3ccc(-c4cc[nH]n4)cc23)cc1,IC50,[2],> 100 µM (active)
same,CC50,[3],> 40 µM (active)
Cc1ccc(NC(=O)c2oc3ccccc3c2C)nc1,IC50,Caspase-3,25.8 µM (active)
same,IC50,[4],7.35 µM (active)
same,IC50,[5],85.3 µM (active)
same,IC50,[6],> 100 µM (inactive)
same,IC50,[7],> 67.5 µM (inactive)
same,EC50,[8],> 67.5 µM (inactive)
Cn1c(SCC(=O)c2ccc3c(c2)NC(=O)CO3)nc2ccccc21,IC50,Prothrombin,> 50 µM (not active)
CCN(CCO)c1nc(SC)nc2c1sc1nc(-c3ccco3)c3c(c12)CCC3,IC50,Ephrin type-A receptor 4,24.1 µM (active)
same,IC50,[9],1.85 µM (active)
same,EC50,[10],66.5 µM (active)
C[C@H](CO)N1C[C@H](C)[C@H](CN(C)S(=O)(=O)c2cccc(F)c2)OCc2ccccc2-c2c(n(C)c3ccccc23)C1=O,AC50,Paired box protein Pax-8,11.3 µM (active)
same,AC50,[11],1.6 µM (active)
same,AC50,[12],31.5 µM (active)
same,AC50,[13],2.07 µM (active)
same,AC50,[14],0.722 µM (active)
same,AC50,[15],0.62 µM (active)
CCOC(=O)c1ccc(/N=C2\SC(C(=O)Nc3ccc(C(=O)O)cc3)CC(=O)N2Cc2cccs2)cc1 (configuration not stated),CC50,[16],13 µM (active)
same,IC50,[2],> 100 µM (active)
same,CC50,[17],> 40 µM (active)
Cc1ccc(OC(=O)N(C)C[C@H]2OCc3ccccc3-c3c(n(C)c4ccccc34)C(=O)N([C@H](C)CO)C[C@@H]2C)cc1,AC50,[11],1.72 µM (active)
same,AC50,[12],22.9 µM (active)
same,AC50,[13],2.53 µM (active)
same,AC50,[14],1.71 µM (active)
same,AC50,[15],1.96 µM (active)
COc1ccccc1C(=O)n1nc(-c2ccco2)nc1SC,IC50,Prothrombin,0.001 µM (active)
N[C@@H](Cc1ccc(N(CCCl)CCCl)cc1)C(=O)O,AC50,HEK293,10.3 µM (active)
same,IC50,[18],2.26 µM (active)
same,IC50,[19],5.36 µM (inactive)
same,AC50,[20],15.8 µM (inconclusive)
